Measurements published in patent publication US6756367B2, “Benzo-oxadiazoles, -thiadiazoles and -1,4-diazines, pharmaceutical compositions containing them and a process for preparing them” (Novartis AG, priority 1998, dated 2004).
Structures can show the parent of a compound that is named as a salt.

How the values were obtained:
human recombinant CRF1 = biological target: T1, human recombinant CRF1 (Homo sapiens, UniProt P34998); test: CRF-stimulated cyclic AMP accumulation in CHO cells expressing human recombinant CRF1 (antagonism, KB from curve shift); format: cell-based; settings: cAMP, shift of CRF curve with antagonist 10 μM
T1 construct: expressed in transfected cells
T1 sequence (P34998 24-415): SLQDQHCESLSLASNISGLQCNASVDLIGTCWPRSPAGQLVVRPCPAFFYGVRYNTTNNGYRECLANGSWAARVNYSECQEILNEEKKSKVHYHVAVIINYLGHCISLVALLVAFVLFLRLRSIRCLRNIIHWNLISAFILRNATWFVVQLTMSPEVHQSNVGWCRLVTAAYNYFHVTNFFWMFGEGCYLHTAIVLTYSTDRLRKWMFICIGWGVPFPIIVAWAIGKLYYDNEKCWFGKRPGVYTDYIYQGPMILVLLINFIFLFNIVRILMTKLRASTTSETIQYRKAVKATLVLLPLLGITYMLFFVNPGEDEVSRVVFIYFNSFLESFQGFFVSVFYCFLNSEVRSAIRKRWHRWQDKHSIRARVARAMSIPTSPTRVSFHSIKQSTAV
Protocol: In particular the agents of the invention bind to CRF receptors.
Chinese hamster ovary (CHO) cells expressing human recombinant CRF1 (Chen et al., Proc Natl Acad Sci USA 90, 8967-8971, 1993) are propagated in Dulbecco's modified Eagle medium supplemented with 10% foetal calf serum, non-essential aminoacids, 100 U/ml penicillin, 100 mg/l streptomycin and 1 g/l geneticin (G418). For cyclic AMP determinations, cells are grown to confluence in 24-multiwell plates. Stimulation of cyclic AMP accumulation by CRF (human/rat form) is measured in intact cells, using the [^3H]adenine labelling technique, as described previously (Schoeffter et al., Neuropharmacology 36, 429-437, 1997). Concentration-response curves for CRF are constructed in the presence of putative antagonists (10 μM) or vehicle (dimethyl sulfoxide 1% vol). KB values are calculated from the rightward shifts of the control curve, according to the formula: KB=[antagonist, M]/concentration-ratio-1), where the concentration-ratio designates the ratio of CRF EC50 value in the presence/CRF EC50 value in the absence, of antagonist [Furchgott, In: catecholamines (edited by Blaschko H and Muscholl E) pp. 283-335. Springer, Berlin, 1972].

mouse = mouse elevated plus-maze (anxiolytic activity); format: in vivo
Text: For example the anxiolytic activity of the agents of the invention could be confirmed in the mouse elevated plus-maze [see for example Rodgers R. J., Behavioural Pharmacology 8: 477-496 (1997) where the relevance of the elevated plus-maze is discussed on p. 486; for the method, see Rodgers R. J. et al. Ethology and Psychopharmacology (Eds S J Cooper and C A Hendrie), pp 9-44 (1994), J. Wiley, Chichester]. In this test, the agents of the invention show anxiolytic-like effects on administration of 0.1 to 30 mg/kg p.o.

Compound | melting point [°C] | other results
CCN(C)c1nc(C)nc(Nc2c(Cl)cc(Cl)c3nsnc23)c1C | 116 | 
CCCCN(CC)c1nc(C)nc(Nc2c(C)cc(C)c3nccnc23)c1C | 106 to 107 | 
CCCN(CC)c1nc(C)nc(Nc2c(Cl)cc(Cl)c3nsnc23)c1C | 107 | 
C=CCN(CC=C)c1nc(C)nc(Nc2c(Cl)cc(Cl)c3nsnc23)c1C | 112 | 
CCCN(CCC)c1nc(C)nc(Nc2c(Cl)cc(Cl)c3nccnc23)c1C | 126 to 128 | 
CCCN(CCC)c1nc(C)nc(Nc2c(Cl)cc(Cl)c3nsnc23)c1C | 118 to 121 | 
CCC(C)Nc1nc(C)nc(Nc2c(C)cc(C)c3nsnc23)c1C (centres unmarked) | 88 | 
CCCN(CCC)c1nc(C)nc(Nc2c(C)cc(C)c3nccnc23)c1C | 94 to 96 | 
CCCCN(CC)c1nc(C)nc(Nc2c(Cl)cc(Cl)c3nsnc23)c1C | 101 | 
CCC(CC)Nc1nc(C)nc(Nc2c(C)cc(C)c3nsnc23)c1C | 113 to 115 | 
CCCN(CCC)c1nc(C)nc(Nc2c(C)cc(C)c3nsnc23)c1Cl | 106 to 108 | 
CCCN(CC)c1nc(C)nc(Nc2c(Cl)cc(Cl)c3nccnc23)c1C | 120 to 123 | 
Cc1nc(Nc2c(Cl)cc(Cl)c3nsnc23)c(C)c(N(C)Cc2ccccc2)n1 | 138 | 
CCCN(CC)c1nc(C)nc(Nc2c(C)cc(C)c3nccnc23)c1C | 109 to 110 | 
CCCCN(C)c1nc(C)nc(Nc2c(Cl)cc(Cl)c3nsnc23)c1C | 105 | 
CCN(CC)c1nc(C)nc(Nc2c(Cl)cc(Cl)c3nsnc23)c1C (as salt: fumarate) | 189 to 193 | 
CCCN(CCC)c1nc(C)nc(Nc2c(Cl)cc(C)c3nsnc23)c1C | 112 to 114 | 
CCCN(CCC)c1cc(Nc2c(C)cc(C)c3nsnc23)nc(C)n1 (as salt: fumarate) | 177 to 179 | 
CCCCN(CCCC)c1nc(C)nc(Nc2c(Cl)cc(Cl)c3nsnc23)c1C | 56 | 
CCCN(CCC)c1nc(C)nc(Nc2c(C)cc(Cl)c3nsnc23)c1C | 102 to 104 | 
CCCN(CCC)c1nc(C)nc(Nc2c(C)cc(C)c3nsnc23)c1C#N | 171 to 173 | 
CCCCN(CC)c1nc(C)nc(Nc2c(Cl)cc(Cl)c3nccnc23)c1C | 117 to 119 | 
CCCN(CCC)c1nc(C)nc(Nc2c(Cl)cc(C)c3nccnc23)c1C | 107 to 109 | 
CCCCN(CC)c1nc(C)nc(Nc2c(C)cc(C)c3nsnc23)c1C | 83 to 84 | 
Cc1nc(NCc2ccccc2)c(C)c(Nc2c(Cl)cc(Cl)c3nsnc23)n1 | 126 | 
CCCN(CCC)c1nc(C)nc(Nc2c(C)ccc3nsnc23)c1C | 95 to 98 | 
CCCN(CC)c1nc(C)nc(Nc2c(C)cc(C)c3nsnc23)c1C | 101 to 102 | 
CCCN(CCC)c1nc(C)nc(Nc2c(C)cc(C)c3nsnc23)c1C [Example 1, 5,7-dimethyl-4-[2,5-dimethyl-6-(di-n-propyl)-amino-pyrimidin-4-yl]-amino-2,1,3-benzothiadiazole] |  | Kb (human recombinant CRF1): 36 nM; parameters related to motor stimulation in the elevated plus-maze (mouse; 0.1 to 10 mg/kg p.o., in contrast to the standard chlordiazepoxide): not affected; effect on anxiety-related behavioural parameters in the elevated plus-maze (mouse; doses of 0.1 to 10 mg/kg p.o.): significantly affect the anxiety-related behavioural parameters; dose of maximum effect on anxiety-related behavioural parameters (mouse; p.o., elevated plus-maze): 3 mg/kg
CCCN(CCC)c1nc(C)nc(Nc2c(Cl)ccc3nsnc23)c1C | 77 to 80 | 
